# Tests used:
# [1] = tested on: AAI-induced nephrotoxicity in rats; assay: Toxicity study in rats (AAI-induced nephrotoxicity, AAN): histology, biochemical indicators, oxidative stress markers, Western blotting of kidney; assay type: in vivo, rat
# Experimental: For the assessment of toxicity, AAI was suspended in olive oil and JBP485 was dissolved in saline. Rats were randomly divided into the following four groups (n = 5 per group): A control group, which was administered saline intraperitoneally (i.p.) and olive oil orally (p.o.); a JBP485-only group, administered JBP485 i. p. at the dose of 50 mg/kg and olive oil p. o.; an AAI-only group, in which the rats were administered AAI p. o. at the dose of 20 mg/kg and saline i. p.; and a JBP485 + AAI group, where the animals were given AAI p. o. at the dose of 20 mg/kg and JBP485 i. p. at the dose of 50 mg/kg. JBP485 was intraperitoneally administered 2 days before AAI treatment. On day 3 and 30 min after AAI administration, rats were given saline i. p. or JBP485 (50 mg/kg) once daily for 7 days. On day 10, the rats were euthanized and blood, urine, and kidneys were collected for subsequent assays.
# Indoxyl sulfate levels in plasma and urine of rats were determined by liquid chromatography-tandem mass spectrometry (LC–MS/MS) (API 3200; Applied Biosystems, Foster City, CA, United States) according to our previous study ([Guo et al., 2013]).
# The levels of BUN and CRE in rat plasma were detected following the instructions of the Nanjing Jiancheng Institute of Biotechnology (Nanjing, China). Samples and reagents were added according to the instructions of the kit and reactions were carried out under the specified conditions. Absorbance was measured at 520 nm and 546 nm, respectively, and the quantities were calculated based on the corresponding formula.
# For the extraction of total protein, 100 mg of fresh kidney tissue was placed in 1 mL of RIPA buffer containing protease inhibitor, phosphatase inhibitor, and PMSF, cut into small pieces with ophthalmic scissors, homogenized, and placed at 4°C to fully lyse for 20 min, with vortexing every 5 min. Following centrifugation at 12,000 rpm for 20 min at 4°C, the protein concentration in the supernatant was determined using a BCA protein quantification kit. The protein concentrations of all the samples were then adjusted to the lowest protein concentration measured. Subsequently, an appropriate amount of 5× loading buffer was added according to the volume, and the samples were placed in boiling water for 10 min. Equal amounts of protein (40 μg) were separated by SDS–PAGE at constant current (120 mA), transferred to a PVDF membrane by wet transfer, blocked in 5% non-fat dry milk for 2 h, and incubated overnight with primary antibodies. The next day, the samples were incubated with the corresponding secondary antibodies (goat anti-rabbit IgG [H&L], 1:2000, or goat anti-mouse IgG [H&L], 1:2000) for 2 h at room temperature. The protein bands were developed using enhanced chemiluminescence (ECL, YH0009-1, Nanjing Crane Biopharmaceuticals, Nanjing, China) and Tanon-5200 system (Shanghai Tianneng Technology Company, Shanghai, China) while ImageJ 6.0 software was used for analysis.
# hOAT1 = target: T1, hOAT1 (Homo sapiens, UniProt Q4U2R8); assay: Uptake of AAI by hOAT1-transfected HEK293 cells with or without JBP485; assay type: cell-based
# T1 construct: expressed in transfected cells; host or cells: HEK293
# T1 sequence (Q4U2R8 1-563): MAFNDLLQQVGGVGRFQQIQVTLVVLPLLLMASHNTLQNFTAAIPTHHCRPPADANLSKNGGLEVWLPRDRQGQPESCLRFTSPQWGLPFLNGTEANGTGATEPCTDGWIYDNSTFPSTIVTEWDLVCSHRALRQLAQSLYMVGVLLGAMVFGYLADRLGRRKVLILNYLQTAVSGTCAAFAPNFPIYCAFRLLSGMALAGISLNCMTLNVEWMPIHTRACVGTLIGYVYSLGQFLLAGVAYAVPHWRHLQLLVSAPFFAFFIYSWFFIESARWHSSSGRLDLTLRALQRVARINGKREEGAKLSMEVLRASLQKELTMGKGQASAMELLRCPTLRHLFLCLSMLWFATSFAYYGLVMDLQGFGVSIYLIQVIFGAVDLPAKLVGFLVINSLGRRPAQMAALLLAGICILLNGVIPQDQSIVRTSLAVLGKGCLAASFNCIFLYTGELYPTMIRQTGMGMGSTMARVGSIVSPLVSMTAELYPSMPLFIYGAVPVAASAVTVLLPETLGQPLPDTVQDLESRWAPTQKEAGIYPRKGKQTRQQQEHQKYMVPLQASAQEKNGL
# Experimental: Uptake experiments with hOAT1/3-HEK293 cells were performed as previously described ([Zhu et al., 2020]). Uptake was initiated by adding transport buffer (1 mL) with AAI (1 μM) and/or JBP485 (500 μM) after the cells were washed twice and incubated with transport buffer at 37°C. Moreover, the concentration-dependent uptake of AAI and the effects of JBP485 on AAI uptake were examined. Uptake was terminated upon the removal of the medium. The cells were washed three times with 1 mL of ice-cold Hanks’ balanced salt solution, lysed with 0.3 mL of 0.1% (v/v) Triton X-100, and then transferred to a polythene tube for quantification by LC-MS/MS. The protein level was measured using the BCA method (Solarbio, Beijing, China) with bovine serum albumin serving as the standard.
# The concentrations of the test compounds in plasma, urine, and cell lysates were determined using an Agilent HP1200 liquid chromatography system (Agilent Technology Inc., SC, CA, United States) and an API 3200 triple-quadrupole mass spectrometer (Applied Biosystems, SC, CA, United States). After protein precipitation using acetonitrile, the analyte was separated on a Hypersil BDS C18 column. The mobile phase consisted of acetonitrile and water containing 0.1% (v/v) formic acid (80:20, v/v). The flow rate was 0.4 mL/min. The mass spectrometer was equipped with an electrospray ionization (ESI) source. Data were acquired in positive ion mode and dynamic multiple reaction monitoring (MRM) mode. The ESI source conditions were as follows: ion spray voltage, 5.5 kV; ion source temperature, 600°C; Gas source 1 (GS1, N2) pressure, 50 psi; Gas source 2 (GS2, N2) pressure, 60 psi; curtain gas (CUR) pressure, 12 psi; and collision gas (CAD) pressure, 10 psi. EP and CXP were set at […] for all analytes. The scan range was m/z 359.9→298.1 for AAI and m/z 130.0→71.2 for IS (Internal Standard, metformin). […] Intra- and inter-day precision was lower than 4.5% with reference to relative standard deviation, while accuracy was within ±6.5% in terms of relative error for analytes. Analyst software (version 1.4.1) was used for equipment control and data acquisition and analysis.
# [2] = JBP485 50 mg/kg i.p. co-administered with AAI 20 mg/kg p.o.
# [3] = JBP485 co-administered with AAI
# [4] = JBP485 co-administered with AAI vs AAI alone
# [5] = JBP485 treatment with AAI vs AAI alone
# [6] = AAI group vs control, Western blot
smiles,measurement,setting,value
"O=C1N[C@@H](CO)C(=O)N2C[C@H](O)C[C@@H]12 (relative stereo) [JBP485, cyclo-trans-4-L-hydroxyprolyl-L-serine]",AAI-induced weight loss,[1]; [2],significantly prevented
same,renal morphology,[1]; [2],markedly improved
same,expression levels of Bcl-2 and Bax in the kidney,[1]; JBP485-only treatment group,no change
same,body weight or renal morphology,[1]; JBP485 alone 50 mg/kg i.p.,did not influence
same,kidney histology (H&E),[1]; JBP485 alone vs control,no significant difference
same,AAI effect on Bax expression in the kidney,[1]; [3],notably reversed
same,AAI effect on Bcl-2 expression in the kidney,[1]; [3],notably reversed
same,AAI-induced histopathological effects in the kidney (H&E),[1]; [3],significantly mitigated
same,kidney weight-to-body weight ratio,[1]; [4],reduced
same,plasma level of BUN,[1]; [4],opposite trend
same,plasma level of CRE,[1]; [4],opposite trend
same,plasma level of indoxyl sulfate,[1]; [4],opposite trend
same,urine level of indoxyl sulfate,[1]; [4],opposite trend
same,"protein expressions of Oat1, Oat3, Oct2, P-gp, Mrp2 and Mate1 in the kidney","[1]; JBP485 co-administered with AAI vs AAI alone, Western blot",significantly increased
same,AAI effect on HO-1 protein level in the kidney,[1]; [5],reversed
same,AAI effect on MDA levels in the kidney,[1]; [5],reversed
same,AAI effect on NQO1 protein level in the kidney,[1]; [5],reversed
same,AAI effect on SOD level in the kidney,[1]; [5],reversed
same,type of inhibition of AAI uptake,"hOAT1; hOAT1-HEK293 cells, Km increased, Vmax unchanged",competitive inhibition
same,IC50,"hOAT1; hOAT1-transfected HEK293 cells, substrate AAI, read-out: IC50 of inhibition of AAI uptake, OAT1",89.8 ± 12.3 µM
"COc1cccc2c1cc([N+](=O)[O-])c1c(C(=O)O)cc3c(c12)OCO3 [AAI, Aristolochic Acid I]",kidney histology (H&E),[1]; AAI 20 mg/kg p.o.,showed damage
same,body weight,[1]; AAI 20 mg/kg p.o. vs control,significantly decreased
same,kidney weight-to-body weight ratio,[1]; AAI 20 mg/kg p.o. vs control,increase
same,MDA levels in the kidney,[1]; AAI group vs control,markedly increased
same,SOD level in the kidney,[1]; AAI group vs control,significantly decreased
same,plasma level of BUN,[1]; AAI group vs control,significantly higher
same,plasma level of CRE,[1]; AAI group vs control,significantly higher
same,plasma level of indoxyl sulfate,[1]; AAI group vs control,significantly higher
same,urine level of indoxyl sulfate,[1]; AAI group vs control,lower
same,Bax expression in the kidney,[1]; [6],increased
same,Bcl-2 expression in the kidney,[1]; [6],decreased
same,HO-1 protein level in the kidney,[1]; [6],significantly decreased
same,NQO1 protein level in the kidney,[1]; [6],significantly decreased
same,"renal transporter expression (Oat1, Oat3, Oct2, P-gp, Mrp2, Mate1)","[1]; AAI-treated rats, Western blot",downregulation
same,Km,"hOAT1; hOAT1-HEK293 cells, with or without JBP485, Eadie-Hofstee, n = 3",15.7 ± 0.4 µM
same,Vmax of AAI uptake,"hOAT1; hOAT1-HEK293 cells, with or without JBP485, n = 3",0.141 ± 0.04 nmol/mg protein/1min

# Reference: paper PMC12074917, “Molecular pharmacokinetic mechanism of JBP485 against aristolochic acid I (AAI) -induced nephrotoxicity” (Frontiers in Pharmacology, 2025)
